{"source": "patent US10295528B2", "about": "“Method of screening ATP11C or CDC50A inhibitor” (KYOTO UNIVERSITY, priority 2014, dated 2019)", "molecules": {"B1": {"name": "D89E mutant of MFG-E8: D89E mutant of MFG-E8, which masks PtdSer; produced in HEK293T cells (protein, UniProt P21956 23-463, looked up, variant D89E)", "Lactadherin": "ASGDFCDSSLCLNGGTCLTGQDNDIYCLCPEGFTGLVCNETERGPCSPNPCYNDAKCLVTLDTQRGEIFTEYICQCPVGYSGIHCETETNYYNLDGEYMFTTAVPNTAVPTPAPTPDLSNNLASRCSTQLGMEGGAIADSQISASSVYMGFMGLQRWGPELARLYRTGIVNAWTASNYDSKPWIQVNLLRKMRVSGVMTQGASRAGRAEYLKTFKVAYSLDGRKFEFIQDESGGDKEFLGNLDNNSLKVNMFNPTLEAQYIKLYPVSCHRGCTLRFELLGCELHGCSEPLGLKNNTIPDSQMSASSSYKTWNLRAFGWYPHLGRLDNQGKINAWTAQSNSAKEWLQVDLGTQRQVTGIITQGARDFGHIQYVASYKVAHSDDGVQWTVYEEQGSSKVFQGNLDNNSHKKNIFEKPFMARYVRVLPVSWHNRITLRLELLGC"}}, "key": {"[1]": {"system": "ATP11C", "assay": "FasL-induced ATP11C cleavage in W3 cells, Western blotting with anti-mATP11C", "assay_type": "cell-based, mouse", "settings": "1 h FasL, 20 μM QVD-Oph, membrane fractions", "experimental": "FIG. 3D Cleavage of ATP11C by caspase (D). W3 and ATP11C^ED22 were incubated for 1 h with FasL in the presence or absence of 20 μM QVD-Oph. Membrane fractions were analyzed by Western blotting with anti-mATP11C or anti-mFas. Upper and middle panels: the blot with anti-mATP11C, where exposure time is longer in the middle panel.\nCells or membrane fractions were lysed in RIPA buffer ([…] (pH 8.0) containing 1% MP-40, 0.1% SDS, 0.5% sodium deoxycholate, 150 mM NaCl, and a cocktail of protease inhibitors (cOmplete, Mini, EDTA-free, Roche Diagnostics)). After removing insoluble materials by centrifugation, the lysates were mixed […] with 3×SDS sample buffer (200 mM Tris-HCl [pH 6.8], 10% SDS, 25% glycerol, 15% β-mercaptoethanol, and 0.05% bromophenol blue), and incubated at room temperature for 20 min. Proteins cere separated by SDS-PAGE using a 7.5% or 10-20% gradient gel (Bio Graft), and transferred to a PVDF membrane (Millipore). The membranes were probed with mouse anti-GFP mAb, rabbit anti-active caspase-3 mAb, rabbit anti-hATP11C Ab, rabbit anti-α-tubulin mAb, or rat anti-mFas mAb, followed by incubation with HRP-conjugated goat anti-mouse Igs, goat anti-rabbit Igs or rabbit anti-rat Igs (Dako). The peroxidase activity was detected by the Western Lightning-ECL system (PerkinElmer)."}, "[2]": {"system": "ATP11C^GT", "assay": "Internalization of NBD lipids (flippase activity), flow cytometry", "assay_type": "cell-based, human", "settings": "KBM7-derived ATP11C^GT cells, 20 min with NBD-PS with or without vanadate, MFI", "experimental": "FIG. 2D Requirement of ATP11C and CDC50A for flippase activity (D), KBM7, ATP11C^GT, and CDC50A^GT were incubated for 20 min with NBD-PS with or without an ATPase inhibitor vanadate, and analyzed by flow cytometry. MFI was plotted (n=3).\nCells (2×10^6) were incubated with 1.5 μM NBD-PS, NBD-PE, or NBD-PC at 25° C. for 15-20 min in 600 μl of HBSS containing 1 mM MgCl2 and 2.5 mM CaCl2. After incubation, the cells were collected by centrifugation, resuspended in HBSS containing 5 mg/ml fatty-acid-free BSA, and analyzed by a FACSAria II. To determine the scramblase activity, 1.5×10^6 cells were incubated at 25° C. for 4 min with 0.5 μM NBD-PC."}, "[3]": {"system": "CDC50A^ED29", "assay": "In vitro phagocytosis assay: thio-pMac engulfment of pHrodo-labeled cells", "assay_type": "cell-based, mouse", "settings": "2 h incubation, 4 μg/ml MFG-E8 D89E", "experimental": "FIG. 6A Engulfment of PtdSer-exposing viable cells (A). Thio-pMacs were incubated for 2 h with pHrodo-labeled W3-Ildm, CDC50A^ED29, its hCDC50A transformant (CDC50A^ED29-hCDC50A), or W3-D430G-L in the presence or absence of 4 μg/ml of MFG-E8 D89E, and analyzed by FACS.\nTo prepare thioglycollate-elicited peritoneal macrophages (thio-pMacs), female C57BL/6J mice at 7-12 weeks of age were injected intraperitonealiy with 60 mg of thioglycollate (Sigma-Aldrich), and peritoneal macrophages were collected 4 days later. Phagocytosis was assayed by following the transport of pHrodo-stained prey into macrophage lysosomes (50, 51). In brief, 5×10^5 thio-pMacs were grown overnight in 12-well plates (Corning). Growing or apoptotic cells (2.0×10^7) were washed with PBS and incubated with 40 ng/ml pHrodo for 10 min at room temperature. After stopping the reaction with 2 ml FCS, the cells were washed with IMDM containing 10% FCS, added to the macrophages in the medium containing 1% methyl cellulose (Sigma-Aldrich), spun at 500×g for 4 min at room temperature using a swinging rotor, and incubated at 37° C. The macrophages were detached from the plate by treatment with 0.25% trypsin, stained with APC-conjugated rat anti-mouse Mac1, suspended in 20 mM CHES-NaOH buffer (pH 9.0) containing 150 mM NaCl, 2% PCS, and 200 nM Sytox blue, and analyzed by flow cytometry using the FACSCanto II. […]"}}, "data": [{"molecule": "CC(C)[C@H](NC(=O)c1ccc2ccccc2n1)C(=O)N[C@@H](CC(=O)O)C(=O)COc1c(F)cccc1F", "note": "[Q-VD-OPh]", "values": [{"measurement": "FasL-caused shift in ATP11C's mobility (from 120 to 50 kDa)", "setting": "[1]", "result": "prevented"}]}, {"molecule": "[O]=[V]([O-])([O-])[O-]", "note": "[orthovanadate]", "values": [{"measurement": "incorporation of phospholipids in ATP11C^GT", "setting": "[2]", "result": "inhibited"}]}, {"molecule": "B1", "values": [{"measurement": "engulfment of CDC50A^ED29 by thio-pMacs", "setting": "[3]", "result": "inhibited"}]}]}
